The values that follow are results of earlier work, collected in US12708515B2, “Valved devices, treatments and methods to restore tissue elastic recoil” (priority 2021, dated 2026).

In one data set the test system is E. coli. The settings on record: cysteine terminated peptide; second value of the pair.
Another data set has as its system E. coli and E. faecalis. The conditions noted are these: physiologically relevant conditions.

Regarding LasioglossinIII, the anti-biofilm in the data set with E. coli is 40% (anti-biofilm). The “antimicrobial activity of coated catheters” value with E. coli and E. faecalis is given as “potent antimicrobial activity”.
